Structures are written as SMILES.

In general, inhibition refers to the share of the control response that was lost under treatment.

This assay addresses T1, aldolase A (Homo sapiens, UniProt P04075).
T1 sequence (P04075 1-364): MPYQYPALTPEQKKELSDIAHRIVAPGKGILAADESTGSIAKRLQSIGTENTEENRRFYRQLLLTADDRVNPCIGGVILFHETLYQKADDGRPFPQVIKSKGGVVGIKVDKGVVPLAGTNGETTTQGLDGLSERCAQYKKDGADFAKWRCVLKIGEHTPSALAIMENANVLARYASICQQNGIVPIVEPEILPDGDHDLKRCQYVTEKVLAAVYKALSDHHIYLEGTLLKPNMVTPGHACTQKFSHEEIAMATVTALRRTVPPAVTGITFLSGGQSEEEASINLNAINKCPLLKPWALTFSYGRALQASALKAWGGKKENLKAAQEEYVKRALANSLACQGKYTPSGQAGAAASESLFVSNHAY
Description: Activity assay at protein level: aldolase-catalyzed degradation of fructose-1,6-biphosphate, coupled triose phosphate isomerase/glycerol-3-phosphate dehydrogenase method. It is filed as biochemical. Particulars: test concentration of compound 100 μM, FBP 500 μM, 37° C., read-out: Inhibition rate (%) of aldolase activity. How it is done:
The inhibition on aldolase activity of a compound was evaluated by its inhibition on the rate of aldolase-catalyzed degradation of the substrate fructose-1,6-biphosphate (FBP). Method for conjugation of triose phosphate isomerase/glycerol-3-phosphate dehydrogenase [Racker, E. (1952) J. Biol. Chem. 196, 347-351] was specifically used for biochemical activity assay (Table 3).
The specific method was as follows:
(1) About 250 ng of aldolase A was dissolved in 30 μL of water, added to the bottom of a 96-well plate of quartz, and a compound (dissolved in DMSO, not exceeding 1% of the total reaction volume) was added to the aldolase A solution, followed by shaking and mixing, and incubation for 30 min at room temperature; […]
(2) 70 μL of an enzyme reaction system (its formulation was given below) was added, and immediately put into a microplate reader (SpectraMax M5, Molecular Devices), to carry out reaction at 37° C. At the same time, the absorbance at 340 nm was measured every 30 s, and a total of 61 absorbance values were obtained for each well. The absorbance value linearly changed with time, and the slope was the enzyme activity of aldolase in the well. The specific value was calculated by SoftMax Pro 5.4.1; […]
a. enzyme reaction buffer (50 mM TEA-HCl, pH 7.4, 10 mM EDTA) […]
d. triose phosphate isomerase (about 20 U) e. glycerol-3-phosphate dehydrogenase (about 2 U)
(3) Two parallel experiments were set for each group, with DMSO having a final concentration of 1% as the blank control, and the final concentration of compound being 100 μM.
On to `Cc1n(C(C)C)cc[n+]1Cc1c(Cl)cccc1Cl` [IA-14], for which the inhibition at 100 µM was 5.06%.
In the case of `CCCn1cc[n+](Cc2cc(F)ccc2OC)c1C` [IA-10] it was 0.06%.
The same measure for `CCn1cc[n+](Cc2c(Cl)cccc2Cl)c1C` [IA-7]: 88.4%.
The same measure for `CCCCCCCCCCCCCCCCn1c(C)[n+](Cc2c(F)cccc2Cl)c2ccccc21` [IIA-1]: 49.9%; for `CCn1cc[n+](Cc2cc(F)ccc2OC)c1C` [IA-6]: 83.4%.

Values taken from patent US11584722B2, “Substituted imidazole salt compounds, preparation method thereof, pharmaceutical composition thereof and application thereof” (Xiamen Vivohealths Technology Co., Ltd., priority 2017, dated 2023).
